For 12 compounds, IC50 results are on record in patent US12509451B2, “Heteroaryl amide inhibitors of CD38” (NAPA THERAPEUTICS LTD., priority 2020, dated 2025).

pIC50: −log10 of the molar value.

Test [1] concerns the target T1, CD38 NAD+ hydrolase activity in NH7-dCas9 cells (Jurkat clone) (Homo sapiens, UniProt P28907).
T1 construct: The assay utilized CD38 expressing NH7-dCas9 cells (Jurkat clone); host or cells: NH7-dCas9 cells (Jurkat clone)
T1 sequence (P28907 1-300): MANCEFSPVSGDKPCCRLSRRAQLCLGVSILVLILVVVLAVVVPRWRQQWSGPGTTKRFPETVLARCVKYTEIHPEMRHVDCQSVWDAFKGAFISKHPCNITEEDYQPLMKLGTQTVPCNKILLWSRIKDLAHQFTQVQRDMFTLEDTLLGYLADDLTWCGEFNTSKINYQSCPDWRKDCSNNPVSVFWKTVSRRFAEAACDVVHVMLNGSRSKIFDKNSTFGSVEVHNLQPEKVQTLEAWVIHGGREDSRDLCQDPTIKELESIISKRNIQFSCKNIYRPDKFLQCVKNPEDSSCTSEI
The experiment in a line: Fluorescence-based NAD+ hydrolase activity assay with human T cell line NH7-dCas9 cells-Jurkat clone (Assay 1). The note with it: read-out: Assay 1 Arithmetic mean IC50. An outline of the steps:
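Intact Jurkat NH7-dCas9 cells (1×10^6/well in PBS) exposed to eight final compound concentrations, 400 nM to 25.6 pM. Reaction started with 80 μM etheno-NAD+; fluorescence (ex 321, em 410 nm) read each minute for 1 h at 37 °C; rate from linear slope, IC50 from three independent experiments.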

Test [2] deals with T2, recombinant human CD38 Protein (Homo sapiens, UniProt P28907).
T2 construct: purchased R&D System
T2 sequence (P28907 1-300): T1 sequence (P28907 1-300)
Put plainly: Fluorescence-based NAD+ cyclase activity assay with human recombinant CD38 protein (Assay 2). Type of test: biochemical. The note with it: read-out: Assay 2 Arithmetic mean IC50. On the procedure:
This protocol was modified from the de Oliveira et al., 2018 reference, supra.
NAD+ cyclase activity of the human recombinant CD38 protein treated with test compounds was measured using a fluorescence-based assay. Briefly, recombinant human CD38 Protein (R&D System) was resuspended in 44 μl/well of Sucrose-Tris Buffer (Sucrose 0.25 M, Tris pH 7.4 40 mM) and plated in a 96-well black plate (CORNING) at a density of 125 ng/well.
Each test compound was received in a powder state and dissolved in DMSO as a 25 mM stock solution. Each test compound was serially diluted in order to generate a dose-response curve. The dilution series of each test compound in DMSO was prepared at 50 times the concentrations to be assayed. Each test compound was diluted to generate a 5-fold dilution series of 8 concentrations from 100 μM to 32 nM in order to assay 8 final concentrations ranging from 2 μM to 0.64 nM. One μl of the 50× concentration compound series was added to each well of the plate containing 125 ng of protein in Sucrose-Tris buffer.
The reaction was started adding nicotinamide guanine dinucleotide (NGD+) (Sigma Aldrich) to reach a final concentration of 150 µM. The samples were excited at 337-15 nm, and the emission of fluorescence was measured at 442-20 nm at 37° C. every minute for 1 hr in a Clariostar microplate reader (BMG LABTECH). NAD+ cyclase activity was calculated as the slope of the linear portion of the fluorescence-time curve using the MARS data analysis software (BMG LABTECH). The data were uploaded in the Collaborative Drug Design (CDD) Software, and for each compound the IC50 was calculated by the software. For each plate, the z-factor was also calculated as a plate quality using the CDD software.

Broadly, the pIC50 is −log10 of the IC50, conventionally taken in molar units. With `Cc1cc(C(=O)Nc2cccnc2)nc(-n2ccnc2)n1` [Compound 49, 2-(1H-imidazol-1-yl)-6-methyl-N-(pyridin-3-yl)pyrimidine-4-carboxamide], the values for the pIC50 in test [1] and in test [2] were more than 9.00 and 7.30 to 9.00, respectively.

For the compound `Cc1cc(C(=O)Nc2ccncc2)nc(-n2ccnc2)n1` [Compound 50], the pIC50 is more than 9.00 in test [1] and 7.30 to 9.00 in test [2].

`Cc1cc(C(=O)Nc2ccncc2)nc(-n2ccnc2)c1` [Compound 52, 6-(1H-imidazol-1-yl)-4-methyl-N-(pyridin-4-yl)picolinamide]: the pIC50 in test [1] is more than 9.00; in test [2], 7.30 to 9.00.

Consider `Cc1cc(C(=O)Nc2cccnc2)nc(-n2ccnc2)c1` [Compound 53], for which the pIC50 in test [1] is more than 9.00; in test [2], 6.00 to 7.29.

On to `Cc1cc(C(=O)Nc2ccc(C(N)=O)nc2)nc(-n2ccnc2)c1` [Compound 54, N-(6-carbamoylpyridin-3-yl)-6-(1H-imidazol-1-yl)-4-methylpicolinamide], for which the pIC50 in test [1] was more than 9.00; in test [2], 7.30 to 9.00.

Take `Cc1cc(C(=O)Nc2ccnc(C(N)=O)c2)nc(-n2ccnc2)c1` [Compound 55]: the pIC50 in test [1] was more than 9.00; in test [2], 6.00 to 7.29.

With `CNC(=O)c1cc(NC(=O)c2cc(C)cc(-n3ccnc3)n2)ccn1` [Compound 56], the pIC50 in test [1] was more than 9.00; in test [2], 6.00 to 7.29.

Take `CNC(=O)c1ccc(NC(=O)c2cc(C)cc(-n3ccnc3)n2)cn1` [Compound 57]: the pIC50 in test [1] is more than 9.00; in test [2], 7.30 to 9.00.

On to `Cc1ccc(-n2ccnc2)nc1C(=O)Nc1cccnc1` [Compound 59, 6-(1H-imidazol-1-yl)-3-methyl-N-(pyridin-3-yl)picolinamide], for which the pIC50 in test [1] is 7.30 to 9.00; in test [2], 6.00 to 7.29.

`O=C(Nc1cccnc1)c1ccc(F)c(-n2ccnc2)n1` [Compound 61]: the pIC50 is 7.30 to 9.00 in test [1] and 5.00 to 6.00 in test [2].

With `O=C(Nc1cccnc1)c1nc(-n2ccnc2)ccc1F` [Compound 62], the pIC50 in test [1] was 7.30 to 9.00; in test [2], 5.00 to 6.00.

For `Nc1cc(C(=O)Nc2cccnc2)nc(-n2ccnc2)c1` [Compound 67], the pIC50 in test [1] is more than 9.00; in test [2] it was 6.00 to 7.29.
